Measured values taken from patent publication US11167015B2, “Arginine and its use as a T cell modulator” (INSTITUTE FOR RESEARCH IN BIOMEDICINE, priority 2016, dated 2021).

Tests used:
72 h-activated T cells = test: Glucose consumption assay; assay type: cell-based, human; conditions: L-arginine supplementation, 24 h in fresh medium
Description: FIG. 3. L-arginine globally influences metabolism of activated human T cells. […] Shown are only metabolites with a Log 2 fc>1 and an adjusted p value of <0.05; n=12 from two donors. Log 2 fold change between 0 and >+2 for L-Orn and L-Arg exemplarily indicated as “high”. (B) Differential analysis of the glycolytic pathway between naïve CD4^+ T cells cultured in L-Arg medium or Ctrl medium, 96 h after activation. Log 2 fold changes of proteins and metabolites are color-coded. […] 3-P-Glycerate and 2-P-Glycerate could not be distinguished as they have the same mass. (C) 72 h-activated T cells were plated in fresh medium and glucose consumption was determined enzymatically after 24 h; n=9 from three donors. (D) Seahorse experiment performed with activated (96 h) T cells from one donor. Oligomycin was injected after 56 min, FCCP after 96 min, and antimycin (to inhibit the respiratory chain) after 136 min. Data are representative of 5 independent experiments with different donors. (E,F) Relative oxygen consumption rate (OCR) (E) and relative spare respiratory capacity (SRC) (F) of activated (96 h) T cells; n=12 from three donors. ****p<0.0001 (Student's t-test).
The amount of glucose in media was determined using the Glucose (GO) Assay Kit from Sigma. Consumption was calculated as the difference between glucose content in reference medium (co-incubated medium without cells) and cell supernatants.

human naïve CD4+ T cells [1] = test: T cell proliferation (CellTrace Violet dilution); assay type: cell-based
Description: FIG. 10. […] (A) Kinetics of T cell proliferation. Human naïve CD4+ T cells were labeled with CellTraceViolet (CTV) and activated in Ctrl medium or in L-Arg medium or in medium supplemented with 3 mM D-arginine or 3 mM L-arginine together with 3 mM L-lysine. Cell divisions were monitored at 48 h and 72 h by flow cytometry. (B) CTV-labeled CD4+ T cells were activated in normal medium or L-Arg medium and the dilution of CTV was measured over time by flow cytometry. n=5 from two donors. (C) 3H-L-arginine uptake by 3 day-activated CD4+ T cells during a 15 minutes pulse. Where indicated, 3 mM L-arginine, D-arginine or L-lysine was added to the culture medium as a competitive uptake inhibitor. n=7 for control, n=9 for L-Arg, n=5 for D-Arg, and n=9 for L-Lys. Bars represent the s.e.m.

human naïve CD4+ T cells [2] = test: Nitric oxide formation measured using DAF-FM diacetate; assay type: cell-based; conditions: L-arginine-supplemented medium vs normal medium
Description: FIG. 9. Impact of L-citrulline on metabolism, Related to FIG. 3. (A) Human naïve CD4^+ T cells were activated in normal medium or in L-Arg medium. Nitric oxide formation was measured using DAF-FM diacetate at different time points. (B) T cells were activated in control medium (Ctrl, containing 1 mM L-arginine), or in medium supplemented with 3 mM L-arginine (L-Arg) or 3 mM L-citrulline (L-Cit) and harvested at different time points. […] Shown are only metabolites with a log 2 fold change >1 and an adjusted p value of <0.05. n=6 from one donor. Log 2 fold change between 0 and >+2 for L-Orn, L-Arg and L-Cit exemplarily indicated as “high”.

Naïve CD8+ OT-I T cells = test: Tcm-like phenotype and IFN-γ of OT-I T cells after in vitro priming; assay type: cell-based, mouse
Description: FIG. 7. CD8+ T cells with increased L-arginine levels display improved anti-tumor activity in vivo. (A) Survival of activated mouse CD8+OT-I T cells (4 d) after IL-2 withdrawal. Data points represent the difference between the percentage of living T cells from cultures performed in L-Arg medium or Ctrl medium; n=11. (B) CD90.1+CD45.1/2+ and CD90.1+CD45.1+ naïve CD8+ OT-I T cells were activated for 4 days in Ctrl medium or L-Arg medium, respectively. Equal numbers of the congenically marked activated OT-I cells were co-transferred into Cd3e−/− mouse and the number of living T cells was measured in pooled spleen and lymph nodes at the indicated time points; n=3 at each time point. (C) Naïve CD8+ OT-I T cells were activated with CD3+CD28 antibodies in L-Arg medium or control (Ctrl) medium. Five days after activation, the percentage of Tcm-like cells (CD44hi, CD62L+) was measured by flow cytometry; n=15. (D) Naïve OT-I CD8+ T cells were activated in L-Arg medium or Ctrl medium and IFN-γ was quantified in culture supernatants after 5 days; n=15. (E) Same as in (D) but T cells were re-activated on day 5 day with PMA/Ionomycin; n=15. (F, G) B16.OVA melanoma cells were injected into C57BL/6 mice and tumors were allowed to grow for 10 days. Naïve OT-I CD8+ T cells were activated in vitro in L-Arg medium or Ctrl medium and injected into tumor bearing mice. Tumor burden (F) and survival (G) were assessed over time. Data are representative of three independent experiments, each performed with 7-9 mice per group. (H) B16.OVA melanoma cells were injected into C57BL/6 mice and tumors were allowed to grow for 6 clays. At day 6, naïve CD8+ OT-I T cells were transferred into tumor bearing mice and at day 7 mice were immunized with OVA peptide. Starting one day before the T cell transfer, PBS or L-arginine (1.5 mg/g body weight) was orally administered daily; n=19 from three independent experiments. Bars represent the s.e.m. *p<0.05, **p<0.01, ***p<0.001, ****p<0.0001 (Student's t-test). In (G) *p<0.05 as determined by log-rank test comparison between curves. […]

## N=C(N)NCCC[C@H](N)C(=O)O [L-arginine]
72 h-activated T cells
  glucose consumption: consumed less glucose
Human naïve CD4+ T cells [1]; 3 mM in medium
  onset of proliferation: slightly delayed onset
Human naïve CD4+ T cells [1]; L-arginine-supplemented medium
  doubling rates once proliferation started: comparable to controls
Human naïve CD4+ T cells [2]
  nitric oxide: did not increase
Naïve CD8+ OT-I T cells; five days after activation in L-Arg medium
  Tcm-like state (CD44hi, CD62L+): maintained a Tcm-like state
Naïve CD8+ OT-I T cells; re-activated on day 5 with PMA/Ionomycin
  IFN-γ production upon reactivation: even more IFN-γ than controls
Naïve CD8+ OT-I T cells; supernatants after 5 days
  IFN-γ secretion after in vitro priming: secreted less IFN-γ than controls
